Experimental findings from patent publication US20260000655A1, “PHARMACEUTICAL COMPOSITION FOR USE IN PREVENTION OR TREATMENT OF LIFESTYLE-RELATED DISEASE” (priority 2022, published 2026) are described below.

The test system of series [1] is adenosine monophosphate-activated protein kinase (AMPK). Put plainly: Activation of AMPK (p-AMPK/AMPK, Western blotting) in liver cell model HepG2. Format: cell-based, human. The note with it: HPH-15 at 1/40th the concentration of metformin (2 mM), 24 hours. From the text:
The tissues involved in glucose uptake and glucose metabolism are mainly the muscle, the liver, and the fat. Thus, using a cell model of each tissue, the relationship between HPH-15 and activation of adenosine monophosphate-activated protein kinase (AMPK) was examined. Note that AMPK is known as a therapeutic target for diabetes. AMPK acts as an energy sensor, and when it detects a decrease in ATP serving as an intracellular energy source, it suppresses the synthesis of glucose, fats, and proteins and produces ATP. Exercise therapy for diabetes is based on this mechanism. Further, AMPK has been drawing attention as a factor that improves insulin resistance.
As a muscle cell model to be used, rat myoblast cell line L6-GLUT4myc (myoblasts expressing myc-tagged GLUT4) was cultured in a minimal essential medium a-MEM (10% FBS) and differentiated into myotubes. Differentiation into myotubes was performed by culturing L6-GLUT4 cells in a-MEM (10% FBS) and then changing the medium to a-MEM (2% FBS), followed by culturing for 6 days. Human HepG2 cell line was used as a liver cell model. As an adipocyte model to be used, mouse 3T3-L1 preadipocyte cell line was differentiated into adipocytes. Differentiation into adipocytes was performed as follows. […]
Next, bands of AMPK and p-AMPK were quantified using ImageJ to determine a ratio of activated AMPK relative to AMPK (p-AMPK/AMPK).
In general terms: A western blot detects proteins with antibodies after separation by electrophoresis.

The test system of series [2] is high-fat diet-induced obesity model mice. The series is described as follows: Organ weight in mouse. The class given is in vivo. The conditions noted are these: HPH-15 100 mg/kg orally once a day 28 days; compared to olive oil. The protocol:
The changes in organ weights when HPH-15 was administered were examined.
High-fat diet-induced obesity model mice were prepared in the same manner as in Example 7. Then, HPH-15 (10 mg/kg or 100 mg/kg, […]) dissolved in olive oil or metformin (300 mg/kg, […]) was orally administered once a day for 28 days. Olive oil alone was administered as a control. After 28 days of administration of each, the liver, muscle, subcutaneous fat, and epididymis of the high-fat diet-induced obesity model mice were excised and weighed.

Series [3] shares this test system. The series is described as follows: H&E staining of mouse tissue. The class given is in vivo. The protocol: High-fat diet-induced obesity model mice were prepared in the same manner as in Example 7. Note that the high-fat diet-induced obesity model mice develop liver damage and are thus used as a liver disease model. Then, HPH-15 (10 mg/kg or 100 mg/kg, […]) dissolved in olive oil or metformin (300 mg/kg, […]) was orally administered once a day for 28 days. Olive oil alone was administered as a control. After administration of each for 28 days, the liver, epididymis, and muscle of the high-fat diet-induced obesity model mice were stained with H&E and observed using a microscope. The results of H&E staining of the liver are shown in FIG. 12A, the results of H&E staining of the epididymis are shown in FIG. 12B, and the results of H&E staining of the muscle are shown in FIG. 12C.

Series [4] shares this test system. Put plainly: Sirius Red staining and collagen amount in mouse tissue. The class given is in vivo. The conditions noted are these: HPH-15 10 mg/kg or 100 mg/kg, metformin 300 mg/kg, orally 28 days, Western blotting. The protocol:
High-fat diet-induced obesity model mice were prepared in the same manner as in Example 7. Then, HPH-15 (10 mg/kg or 100 mg/kg, […]) dissolved in olive oil or metformin (300 mg/kg, […]) was orally administered once a day for 28 days. Olive oil alone was administered as a control. After 28 days of administration of each, the liver and the epididymal fat of the high-fat diet-induced obesity model mice were stained with Sirius Red and observed using a microscope.
Further, high-fat diet-induced obesity model mice were prepared in the same manner as in Example 7. Then, HPH-15 (10 mg/kg or 100 mg/kg, […]) dissolved in olive oil or metformin (300 mg/kg, […]) was orally administered once a day for 28 days. Olive oil alone was administered as a control. After 28 days of administration of each, equal amounts (50 mg) of tissue pieces were collected from the liver and epididymal adipose tissues of the high-fat diet-induced obesity model mice, transferred to 1.5 mL Eppendorf tubes, and washed twice with PBS. After washing, the tissue pieces were transferred to BIOMASHER II, […] of RIPA buffer was added, and the tissue pieces were homogenized on ice. After homogenization, the tissue pieces were centrifuged (10,000 rpm, 4° C., 5 min) and the supernatant was obtained as a protein solution. The concentration of the proteins thus obtained was corrected based on the protein concentration measured by the BCA method using bicinchoninic acid (BCA), thereby preparing samples for Western blotting. Western blotting was quantified using ImageJ to calculate the amount of collagen.

The mark [5] stands for this setting: HPH-15 10 or 100 mg/kg orally 28 days.

Regarding `CC(C)(C)SCCNC(=S)c1cccc(C(=S)NCCSC(C)(C)C)n1` [HPH-15], the “AMPK activation (p-AMPK/AMPK) compared to when metformin was used” value in series [1] is “approximately 40%”. Further, the “reduction of subcutaneous fat weight” value in series [2] is “approximately 50%”. The “visible fat in liver tissue and epididymal adipose tissue (H&E)” value in series [3] (HPH-15 100 mg/kg orally 28 days) is listed as “almost no fat was visible”. Moreover, in series [3] (setting [5]), the “cell area ratio in the epididymal adipose tissue (size of adipocytes, H&E)” value is recorded as “reducing the cell area ratio” and the “macrophage infiltration in epididymal adipose tissue (H&E)” value was “does not cause macrophage infiltration”. Moreover, the “percentage of fat in the liver tissue (H&E)” value in series [3] (HPH-15 10 or 100 mg/kg orally 28 days, compared to the control and metformin 300 mg/kg) is “significantly reducing the percentage of fat in the liver tissue”. Besides, in series [3] (orally once a day 28 days, FIG. 12C), the “tissue changes or toxicity in the muscle (H&E)” value is recorded as “no tissue changes or toxicity was observed”. Besides, in series [4], the “amount of collagen in the epididymal adipose tissue” value is reported as “strongly reduced” and the “amount of collagen in the liver tissue” value is “strongly reduced”.
